Data as given in ChEMBL document CHEMBL4725450 (ACS Med Chem Lett, 2020).

Legend:
[1] = target: T1, Solute carrier family 22 member 12 (Homo sapiens, UniProt Q96S37); test: Inhibition of URAT1 in human RPTEC assessed as inhibition of [14C]uric acid uptake preincubated for 15 mins followed by [14C]uric acid addition and incubated under shaking condition for 2 hrs by scintillation counter method; type: tissue-based
T1 sequence (Q96S37 whole entry): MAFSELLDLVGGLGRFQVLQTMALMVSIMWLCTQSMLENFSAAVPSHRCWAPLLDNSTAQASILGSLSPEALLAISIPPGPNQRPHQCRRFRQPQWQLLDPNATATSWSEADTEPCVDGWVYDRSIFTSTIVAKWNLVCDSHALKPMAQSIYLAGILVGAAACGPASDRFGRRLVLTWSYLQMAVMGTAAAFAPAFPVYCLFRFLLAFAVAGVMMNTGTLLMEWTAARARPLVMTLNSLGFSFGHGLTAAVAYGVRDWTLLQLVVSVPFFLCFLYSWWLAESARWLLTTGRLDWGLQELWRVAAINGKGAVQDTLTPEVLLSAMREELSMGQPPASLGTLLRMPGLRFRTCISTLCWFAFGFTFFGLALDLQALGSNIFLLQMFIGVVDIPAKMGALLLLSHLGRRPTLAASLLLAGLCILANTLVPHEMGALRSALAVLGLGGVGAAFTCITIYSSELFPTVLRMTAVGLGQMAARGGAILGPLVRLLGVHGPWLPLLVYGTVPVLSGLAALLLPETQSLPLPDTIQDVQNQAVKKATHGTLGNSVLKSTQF

[2] = target: T1, Solute carrier family 22 member 12; test: Inhibition of URAT1 in human RPTEC assessed as inhibition of [14C]uric acid uptake at 10 uM preincubated for 15 mins followed by [14C]uric acid addition and incubated under shaking condition for 2 hrs by scintillation counter method; type: tissue-based
[3] = system: mitochondrial respiration; test: Hepatotoxicity in rat liver mitochondria assessed as inhibition of mitochondrial respiration by measuring mitochondrial respiratory control ratio of oxygen consumption in presence of substrate and ADP to rate after complete conversion of ADP to ATP at 100 uM by Clark-type oxygen electrode method; type: toxicity
[4] = system: mitochondrial respiration; test: Hepatotoxicity in rat liver mitochondria assessed as inhibition of mitochondrial respiration by measuring mitochondrial respiratory control ratio of oxygen consumption in presence of substrate and ADP to rate after complete conversion of ADP to ATP by Clark-type oxygen electrode method; type: toxicity
[5] = Cmax in rat at 3 mg/kg, po by HPLC analysis; type: ADME, organism-based; parameters: route oral, dose 3 mg/kg; conditions: in vivo
[6] = Drug excretion rate in rat urine at 3 mg/kg, po measured up to 4 hrs by HPLC analysis; type: ADME, organism-based; conditions: read-out: Drug excretion
[7] = target: T1, Solute carrier family 22 member 12; test: Inhibition of human URAT1 expressed in Xenopus laevis oocytes assessed as inhibition of [14C]uric acid uptake measured after 60 mins by liquid scintillation counter method
[8] = Cmax in rat at 0.3 mg/kg, po; type: ADME, organism-based; parameters: route oral, dose 0.3 mg/kg; conditions: in vivo
[9] = AUC (0 to infinity) in rat at 0.3 mg/kg, po; type: ADME, organism-based; parameters: time infinity, route oral, dose 0.3 mg/kg; conditions: in vivo
[10] = Oral bioavailability in rat at 0.3 mg/kg; type: ADME, organism-based; conditions: in vivo
[11] = Cmax in rat at 0.3 mg/kg, iv; type: ADME, organism-based; parameters: route intravenous, dose 0.3 mg/kg; conditions: in vivo
[12] = AUC (0 to infinity) in rat at 0.3 mg/kg, iv; type: ADME, organism-based; parameters: time infinity, route intravenous, dose 0.3 mg/kg; conditions: in vivo
[13] = AUC (0 to 24 hrs) in Cebus monkey at 5 mg/kg, po; type: ADME, organism-based; parameters: route oral, dose 5 mg/kg, time <=24; conditions: in vivo
[14] = Uricosuric effect in Cebus monkey assessed as fractional plasma urate excretion at 5 mg/kg, po measured up to 4 hrs; type: functional; conditions: time hrs <=4
[15] = target: T1, Solute carrier family 22 member 12; test: Inhibition of human URAT1 expressed in Xenopus laevis oocytes mediated [14C]uric acid uptake at 0.1 uM measured after 60 mins by liquid scintillation counter method relative to control; type: cell-based; conditions: 1 h
[16] = Drug excretion in human urine assessed as excretion rate of glucuronide metabolite of phenols measured for 72 hrs by mass balance test; type: ADME, tissue-based
[17] = Drug excretion in human urine assessed as excretion rate of sulfate metabolite of phenols measured for 72 hrs by mass balance test; type: ADME
[18] = AUC (0 to 24 hrs) in Cebus monkey at 30 mg/kg, po; type: ADME, organism-based; parameters: route oral, dose 30 mg/kg, time <=24; conditions: in vivo
[19] = Uricosuric effect in Cebus monkey assessed as fractional plasma urate excretion at 30 mg/kg, po measured up to 4 hrs; type: functional; conditions: time hrs <=4
[20] = Acid dissociation constant, pKa of the compound; type: physicochemical
Cytochrome P450 2C9 = Cytochrome P450 2C9 (Homo sapiens, UniProt P11712); test: Inhibition of CYP2C9 (unknown origin); type: ADME
Sequence of Cytochrome P450 2C9 (P11712 whole entry): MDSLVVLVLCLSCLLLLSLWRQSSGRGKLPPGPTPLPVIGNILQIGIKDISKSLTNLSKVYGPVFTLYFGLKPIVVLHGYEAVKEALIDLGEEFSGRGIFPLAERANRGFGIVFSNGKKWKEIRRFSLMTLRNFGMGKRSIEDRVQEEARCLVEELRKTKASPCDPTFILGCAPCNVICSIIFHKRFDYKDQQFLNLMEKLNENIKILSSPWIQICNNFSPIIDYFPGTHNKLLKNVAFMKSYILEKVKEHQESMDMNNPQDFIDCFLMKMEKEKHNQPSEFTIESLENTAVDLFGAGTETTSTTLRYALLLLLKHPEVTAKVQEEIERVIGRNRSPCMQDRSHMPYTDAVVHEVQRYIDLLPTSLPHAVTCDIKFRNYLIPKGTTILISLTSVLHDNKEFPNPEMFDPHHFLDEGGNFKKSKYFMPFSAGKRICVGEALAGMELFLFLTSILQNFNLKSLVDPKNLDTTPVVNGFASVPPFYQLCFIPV

| SMILES | IC50 [1] [µM] | inhibition at 10 µM [2] [%] | inhibition at 100 µM [3] [%] | IC50 [4] [µM] | Cmax [5] [ng/mL] | dose excreted at 4 h [6] [%] | further results |
| --- | --- | --- | --- | --- | --- | --- | --- |
| COc1cc(C(=O)N2CCc3ccccc32)cc(C#N)c1O | > 100 | 21.7 | -10 |  |  |  |  |
| O=C(c1cc(Cl)c(O)c(Cl)c1)N1CS(=O)(=O)c2ccccc21 [DOTINURAD] | 6.8 | 81 |  | 27 | 9140 | 1.1 | IC50 [7]: 37.2 nM; Cmax [8]: 1090 ng/mL; AUC(0-inf) [9]: 5740 ng·h/mL; bioavailability [10]: 86.8%; Cmax [11]: 2400 ng/mL; AUC(0-inf) [12]: 6620 ng·h/mL; AUC(0-t) [13]: 109 µg·h/mL; Activity [14]: 16.5%; inhibition at 0.1 µM [15]: 78%; Drug excretion [16]: 44.3%; Drug excretion [17]: 20% |
| CCc1cc(C(=O)N2CS(=O)(=O)c3ccccc32)cc(C#N)c1O | > 100 | 32 |  | 37 | 4240 | 1.7 | inhibition at 0.1 µM [15]: 36% |
| COc1cc(C(=O)N2CS(=O)(=O)c3ccccc32)cc(C(F)(F)F)c1O | 17.8 |  | 47 |  | 3990 | 0 |  |
| COc1cc(C(=O)N2CS(=O)(=O)c3ccccc32)cc(Cl)c1O | 4.3 |  | 49 |  | 1060 | 0.1 |  |
| N#Cc1cc(C(=O)N2CCc3ccccc32)cc(C#N)c1O | 83.9 | 26.3 | 47 |  |  |  |  |
| N#Cc1cc(C(=O)N2CCc3ccccc32)cc(Cl)c1O | 14.7 | 38.2 |  | 31 |  |  |  |
| CC(C)(C)c1cc(C(=O)N2CCc3ccccc32)cc(C#N)c1O | 31.6 | 32.4 |  | 6.6 |  |  |  |
| C#Cc1cc(C(=O)N2CS(=O)(=O)c3ccccc32)cc(C#N)c1O | 3.2 |  | 13 |  | 1580 | 12.4 |  |
| CCc1oc2ccccc2c1C(=O)c1cc(Br)c(O)c(Br)c1 [BENZBROMARONE] |  | 51 |  | 3.1 | 4420 | 0 | AUC(0-t) [18]: 95200 ng·h/mL; Activity [19]: 11.5%; pKa [20]: 5.17; inhibition at 0.1 µM [15]: 37% |
| O=C(c1cc(F)c(O)c(Cl)c1)N1CS(=O)(=O)c2ccccc21 | 33.9 |  |  | 63 | 7700 | 4.3 |  |
| N#Cc1cc(C(=O)N2CS(=O)(=O)c3ccccc32)cc(C2CC2)c1O | 19.2 | 42 |  | 59 | 3810 | 0.6 | IC50 (Cytochrome P450 2C9): 57 µM; inhibition at 0.1 µM [15]: 30% |
| Cc1c(C)n(C(=O)c2ccc(O)c(C#N)c2)c2ccccc12 | 10.8 | 52.1 |  | 3.6 |  |  |  |
| O=c1[nH]c(=O)c2[nH]c(=O)[nH]c2[nH]1 [URIC ACID] |  |  |  |  |  |  | pKa [20]: 5.75 |
| N#Cc1cc(C(=O)N2CCc3ccccc32)cc(I)c1O | 5.3 | 65.1 |  | 53 | 5950 | 0.02 |  |
| N#Cc1cc(C(=O)N2CS(=O)(=O)c3ccccc32)cc(Cl)c1O | > 100 | 25 | 20 |  | 1350 | 23 | inhibition at 0.1 µM [15]: 29% |
| N#Cc1cc(C(=O)N2CS(=O)(=O)c3ccccc32)cc(C(F)(F)F)c1O | > 100 |  | 12 |  |  |  |  |
| O=C(c1cc(Cl)c(O)c(C(F)(F)F)c1)N1CS(=O)(=O)c2ccccc21 | 2.6 |  |  | 18 | 6410 | 0.1 |  |
| N#Cc1cc(C(=O)N2CCc3ccccc32)ccc1O | 2.5 | 67.5 | 43 |  | 890 | 5.9 |  |
| CSc1cc(C(=O)N2CS(=O)(=O)c3ccccc32)cc(Cl)c1O | 5.7 |  |  | 59 | 4640 | 0.2 |  |
| N#Cc1cc(C(=O)N2CCc3ccccc32)cc(C(F)(F)F)c1O | > 100 | 30 | 40 |  |  |  |  |
| CC(C)c1cc(C(=O)N2CS(=O)(=O)c3ccccc32)cc(C#N)c1O | 83.3 |  |  | 12 | 4460 | 0.1 |  |
| CSc1cc(C(=O)N2CS(=O)(=O)c3ccccc32)cc(C#N)c1O | 7.1 | 57 | 21 |  | 1080 | 9.4 | inhibition at 0.1 µM [15]: 44% |
| N#Cc1cc(C(=O)N2CSc3ccccc32)cc(C(F)(F)F)c1O | 13.1 | 49 |  | 55 | 3150 | 0.1 | inhibition at 0.1 µM [15]: 71% |
| N#Cc1cc(C(=O)N2CCc3ccccc32)cc(C2CC2)c1O | 8.8 | 67.8 |  | 24 | 1360 | 0.35 |  |
| CSc1cc(C(=O)N2CCc3ccccc32)cc(C#N)c1O | > 100 | 24.2 |  | 40 |  |  |  |
